Key:
[1] = test system: bicistronic HCV replicon (replicon RNA, GenBank Accession No. AJ242654); experiment: HCV Replicon Assay; format: cell-based; conditions: Hepatitis C virus, 72 h, read-out: Replicon IC50

| SMILES | melting point | IC50 [1] |
| --- | --- | --- |
| C[C@H](NS(=O)(=O)c1ccc(-c2c(C#N)c3cc(F)ccc3n2C2CCCC2)nc1)C1CC1 [compound 143, 6-(3-cyano-1-cyclopentyl-5-fluoro-1H-indol-2-yl)-N-[(1S)-1-cyclopropylethyl]pyridine-3-sulfonamide] | 159 to 160 °C | < 500 nM |
| C[C@H](NS(=O)(=O)c1cnc(-c2c(C#N)c3ccc(F)cc3n2CC2CC2)nc1)C1CC1 [compound 498, 2-[3-cyano-1-(cyclopropylmethyl)-6-fluoro-1H-indol-2-yl]-N-[(1S)-1-cyclopropylethyl]pyrimidine-5-sulfonamide] | 198 to 199 °C | 500 to 2000 nM |
| CCc1cc2c(cc1F)c(C(N)=O)c(-c1ccc(NS(=O)(=O)C(C)(C)C)nc1)n2C1CCCCC1 [compound 1037, 2-{6-[(tert-butylsulfonyl)amino]pyridin-3-yl}-1-cyclohexyl-6-ethyl-5-fluoro-1H-indole-3-carboxamide] | 297 to 299 °C | < 500 nM |
| Cc1c(F)cc2c(C#N)c(-c3ccc(S(=O)(=O)N[C@@H](C)C(F)(F)F)cn3)n(C3CCCC3)c2c1F [compound 508, 6-(3-cyano-1-cyclopentyl-5,7-difluoro-6-methyl-1H-indol-2-yl)-N-[(2S)-1,1,1-trifluoropropan-2-yl]pyridine-3-sulfonamide] | 215 to 219 °C | < 500 nM |
| N#Cc1c(-c2ncc(S(=O)(=O)NC(CF)CF)cn2)n(C2CCCCC2)c2ccc(Cl)cc12 [compound 463, 2-(5-chloro-3-cyano-1-cyclohexyl-1H-indol-2-yl)-N-(1,3-difluoropropan-2-yl)pyrimidine-5-sulfonamide] | 251 to 253 °C | < 500 nM |
| Cc1c(F)cc2c(C#N)c(-c3ccc(S(=O)(=O)NC(C)(C)C(F)(F)F)cn3)n(C3CCC3)c2c1F [compound 577, 6-(3-cyano-1-cyclobutyl-5,7-difluoro-6-methyl-1H-indol-2-yl)-N-(1,1,1-trifluoro-2-methylpropan-2-yl)pyridine-3-sulfonamide] | 180 to 187 °C | < 500 nM |
| Cc1ccc2c(c1)c(C#N)c(-c1ccc(S(=O)(=O)N[C@@H](C)C(F)(F)F)cn1)n2CC1CC1 [compound 372, 6-[3-cyano-1-(cyclopropylmethyl)-5-methyl-1H-indol-2-yl]-N-[(2S)-1,1,1-trifluoropropan-2-yl]pyridine-3-sulfonamide] | 175 to 180 °C | < 500 nM |
| N#Cc1c(-c2ncc(S(=O)(=O)NC(CF)CF)cn2)n(C2CCC2)c2cc(C3CCC3)ccc12 [compound 264, 2-(3-cyano-1,6-dicyclobutyl-1H-indol-2-yl)-N-(1,3-difluoropropan-2-yl)pyrimidine-5-sulfonamide] | 184 to 188 °C | 500 to 2000 nM |
| COc1ccc2c(C#N)c(-c3ccc(S(=O)(=O)N[C@H](C)C(F)(F)F)cn3)n(C3CCC3)c2c1 [compound 428, 6-(3-cyano-1-cyclobutyl-6-methoxy-1H-indol-2-yl)-N-[(2R)-1,1,1-trifluoropropan-2-yl]pyridine-3-sulfonamide] | 206 to 212 °C | < 500 nM |
| N#Cc1c(-c2ccc(S(=O)(=O)NC(CF)CF)cn2)n(CC2CC2)c2cc(Cl)ccc12 [compound 62, 6-[6-chloro-3-cyano-1-(cyclopropylmethyl)-1H-indol-2-yl]-N-(1,3-difluoropropan-2-yl)pyridine-3-sulfonamide] | 223 to 227 °C | < 500 nM |
| Cc1ccc2c(C#N)c(-c3ncc(S(=O)(=O)N[C@@H](C)C(F)(F)F)cn3)n(C(C)C)c2c1 [compound 403, 2-[3-cyano-6-methyl-1-(propan-2-yl)-1H-indol-2-yl]-N-[(2S)-1,1,1-trifluoropropan-2-yl]pyrimidine-5-sulfonamide] | 235 to 236 °C | 500 to 2000 nM |
| CCc1cc2c(cc1F)c(C(N)=O)c(-c1ccc(S(=O)(=O)N[C@@H](C)C(F)(F)F)cn1)n2C1CCCC1 [compound 830, 1-cyclopentyl-6-ethyl-5-fluoro-2-(5-{[(2S)-1,1,1-trifluoropropan-2-yl]sulfamoyl}pyridin-2-yl)-1H-indole-3-carboxamide] | 237 to 238 °C | < 500 nM |
| COc1ccc2c(c1)c(C#N)c(-c1ccc(S(=O)(=O)NC(CF)CF)cn1)n2C1CCC1 [compound 550, 6-(3-cyano-1-cyclobutyl-5-methoxy-1H-indol-2-yl)-N-(1,3-difluoropropan-2-yl)pyridine-3-sulfonamide] | 149 to 150 °C | < 500 nM |
| Cc1ccc2c(c1)c(C#N)c(-c1ncc(S(=O)(=O)N[C@@H](C)C3CC3)cn1)n2C1CCCC1 [compound 562, 2-(3-cyano-1-cyclopentyl-5-methyl-1H-indol-2-yl)-N-[(1S)-1-cyclopropylethyl]pyrimidine-5-sulfonamide] | 168 to 171 °C | < 500 nM |
| CC(C)(C)NS(=O)(=O)c1ccc(-c2c(C#N)c3cc(F)c(C4CC4)cc3n2-c2ccccc2)nc1 [compound 1117, N-tert-butyl-6-(3-cyano-6-cyclopropyl-5-fluoro-1-phenyl-1H-indol-2-yl)pyridine-3-sulfonamide] | 219.2 to 220.8 °C | < 500 nM |
| C[C@H](NS(=O)(=O)c1cnc(-c2c(C#N)c3cc(F)ccc3n2C2CCCC2)nc1)C1CC1 [compound 530, 2-(3-cyano-1-cyclopentyl-5-fluoro-1H-indol-2-yl)-N-[(1S)-1-cyclopropylethyl]pyrimidine-5-sulfonamide] | 184 to 186 °C | < 500 nM |
| CC(C)NS(=O)(=O)c1ccc(-c2c(C#N)c3ccc(OC(F)F)cc3n2C2CC2)cn1 [compound 39, 5-[3-cyano-1-cyclopropyl-6-(difluoromethoxy)-1H-indol-2-yl]-N-(propan-2-yl)pyridine-2-sulfonamide] | 209 to 210 °C | 2000 to 5000 nM |
| COc1ccc2c(C#N)c(-c3ccc(S(=O)(=O)NC(CF)CF)cn3)n(C3CCC3)c2c1 [compound 229, 6-(3-cyano-1-cyclobutyl-6-methoxy-1H-indol-2-yl)-N-(1,3-difluoropropan-2-yl)pyridine-3-sulfonamide] | 174 to 177 °C | < 500 nM |
| N#Cc1c(-c2ccc(S(=O)(=O)NC(CF)CF)cn2)n(C2CCC2)c2cc(CC(F)F)ccc12 [compound 267, 6-[3-cyano-1-cyclobutyl-6-(2,2-difluoroethyl)-1H-indol-2-yl]-N-(1,3-difluoropropan-2-yl)pyridine-3-sulfonamide] | 166 to 168 °C | < 500 nM |
| Cc1ccc2c(C#N)c(-c3ncc(S(=O)(=O)NC(C)C)cn3)n(C3CCC3)c2c1 [compound 169, 2-(3-cyano-1-cyclobutyl-6-methyl-1H-indol-2-yl)-N-(propan-2-yl)pyrimidine-5-sulfonamide] | 217 to 219 °C | < 500 nM |
| CC(C)(C)S(=O)(=O)Nc1ccc(-c2c(C(N)=O)c3cc(F)c(OCF)cc3n2C2CCCCC2)cn1 [compound 1102, 2-{6-[(tert-butylsulfonyl)amino]pyridin-3-yl}-1-cyclohexyl-5-fluoro-6-(fluoromethoxy)-1H-indole-3-carboxamide] | 274 to 276 °C | < 500 nM |
| Cc1ccc2c(c1)c(C#N)c(-c1ccc(S(=O)(=O)N[C@@H](C)C(F)(F)F)cn1)n2-c1ncccc1F [compound 844, 6-[3-cyano-1-(3-fluoropyridin-2-yl)-5-methyl-1H-indol-2-yl]-N-[(2S)-1,1,1-trifluoropropan-2-yl]pyridine-3-sulfonamide] | 216 to 220 °C | < 500 nM |
| N#Cc1c(-c2ccc(S(=O)(=O)NC3CC(F)(F)C3)cn2)n(C2CCC2)c2cc(C3CC3)ccc12 [compound 247, 6-(3-cyano-1-cyclobutyl-6-cyclopropyl-1H-indol-2-yl)-N-(3,3-difluorocyclobutyl)pyridine-3-sulfonamide] | 176 to 178 °C | 500 to 2000 nM |
| C[C@H](NS(=O)(=O)c1ccc(-c2c(C#N)c3cc(C(F)(F)F)ccc3n2-c2ncccn2)nc1)C(F)(F)F [compound 922, 6-[3-cyano-1-(pyrimidin-2-yl)-5-(trifluoromethyl)-1H-indol-2-yl]-N-[(2S)-1,1,1-trifluoropropan-2-yl]pyridine-3-sulfonamide] | 180 to 183 °C | < 500 nM |
| Cc1ccc2c(C#N)c(-c3ncc(S(=O)(=O)NC(CF)CF)cn3)n(-c3ccccc3)c2c1 [compound 260, 2-(3-cyano-6-methyl-1-phenyl-1H-indol-2-yl)-N-(1,3-difluoropropan-2-yl)pyrimidine-5-sulfonamide] | 169 to 171 °C | < 500 nM |
| N#Cc1c(-c2ccc(S(=O)(=O)NC3(C(F)(F)F)CC3)cn2)n(C2CCCC2)c2ccc(F)cc12 [compound 327, 6-(3-cyano-1-cyclopentyl-5-fluoro-1H-indol-2-yl)-N-[1-(trifluoromethyl)cyclopropyl]pyridine-3-sulfonamide] | 202 to 206 °C | < 500 nM |
| CC(C)c1ccc2c(C#N)c(-c3ccc(S(=O)(=O)NC(CF)CF)cn3)n(C3CCC3)c2c1 [compound 43, 6-[3-cyano-1-cyclobutyl-6-(propan-2-yl)-1H-indol-2-yl]-N-(1,3-difluoropropan-2-yl)pyridine-3-sulfonamide] | 135 to 140 °C | < 500 nM |
| CC(C)NS(=O)(=O)c1cnc(-c2c(C#N)c3ccc(OC(F)F)cc3n2C(C)C)nc1 [compound 171, 2-[3-cyano-6-(difluoromethoxy)-1-(propan-2-yl)-1H-indol-2-yl]-N-(propan-2-yl)pyrimidine-5-sulfonamide] | 193 to 196 °C | < 500 nM |
| CC(C)NS(=O)(=O)c1cnc(-c2c(C#N)c3ccc(OC(F)(F)F)cc3n2C2CCC2)nc1 [compound 116, 2-[3-cyano-1-cyclobutyl-6-(trifluoromethoxy)-1H-indol-2-yl]-N-(propan-2-yl)pyrimidine-5-sulfonamide] | 200 to 203 °C | < 500 nM |

From US8735414B2 (priority 2009, dated 2014)
